Consider ten compounds from US20160002204A1 (Board of Regents, The University of Texas System, priority 2014, published 2016).

For orientation: EC50 means the concentration that produces a half-maximal response. A higher EC50 goes with lower potency in that assay. Broadly, the IC50 is the concentration that gives 50% inhibition.

For test [1], the system named is A549 cells. The test is described as follows: A549 proliferation (viability) assay, Cell Titer Fluor, 72 hours. In kind it is cell-based. As to conditions: Homo sapiens. A digest of the protocol:
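Compound was added to A549 cells (1000/well, pre-grown 24 h in RPMI 1640 plus 10% dialyzed FBS) at 0.5% DMSO and left 72 h under 37 °C, 5% CO2, ambient O2. Live-cell fluorescence (Cell Titer Fluor) gave the EC50.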

Test [2] concerns the target T1, GLS1 (purified recombinant human GAC) (Homo sapiens, UniProt O94925).
T1 sequence (O94925 55-598 isoform O94925-3 limits assumed): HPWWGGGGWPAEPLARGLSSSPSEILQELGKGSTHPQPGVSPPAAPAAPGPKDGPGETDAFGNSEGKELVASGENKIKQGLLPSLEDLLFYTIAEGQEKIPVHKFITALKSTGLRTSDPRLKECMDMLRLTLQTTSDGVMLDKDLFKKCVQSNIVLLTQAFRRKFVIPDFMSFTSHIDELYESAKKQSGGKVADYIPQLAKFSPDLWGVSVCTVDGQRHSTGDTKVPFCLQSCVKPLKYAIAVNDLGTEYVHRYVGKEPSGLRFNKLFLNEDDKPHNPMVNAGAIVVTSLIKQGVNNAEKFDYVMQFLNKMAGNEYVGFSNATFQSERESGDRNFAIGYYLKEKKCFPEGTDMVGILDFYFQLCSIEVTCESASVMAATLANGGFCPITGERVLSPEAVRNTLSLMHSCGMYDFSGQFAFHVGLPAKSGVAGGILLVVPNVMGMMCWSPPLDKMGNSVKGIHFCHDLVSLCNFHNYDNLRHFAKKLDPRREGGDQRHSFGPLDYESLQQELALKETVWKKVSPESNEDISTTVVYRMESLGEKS
The test is described as follows: GLS1 enzymatic activity assay (dual-coupled, Amplex UltraRed/resorufin). In kind it is biochemical. Put shortly: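 In this coupled fluorometric format, phosphate-activated GAC (2 nM, 50 mM phosphate) is pre-exposed to compound for 10 min before 1 mM glutamine addition. Product is tracked as resorufin (530/590 nm) over time or at 20 min, and potency is derived by logistic fitting.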

Turning to `Nc1ccn(CCCCc2ccc(NC(=O)Cc3cccc(OC(F)(F)F)c3)nn2)c(=O)n1` [Example 77, N-{6-[4-(4-amino-2-oxo-1,2-dihydropyrimidin-1-yl)butyl]pyridazin-3-yl}-2-[3-(trifluoromethoxy)phenyl]acetamide], the EC50 in test [1] was above 5 µM. For the same compound, in test [2], the half-inhibitory concentration (IC50) is 0.5 to 5 µM.
`O=C(Cc1cccc(OC(F)(F)F)c1)Nc1ccc(CCCCn2ccc(NC(=O)[C@@H](O)c3ccccc3)nc2=O)nn1` [Example 78, (2S)-2-hydroxy-N-{2-oxo-1-[4-(6-{2-[3-(trifluoro-methoxy)phenyl]acetamido}pyridazin-3-yl)butyl]-1,2-dihydropyrimidin-4-yl}-2-phenylacetamide] yielded an EC50 in test [1] below 0.1 µM. Moreover, the IC50 in test [2] was below 0.1 µM.
In turn, `Nc1nnc(CCCCn2ccc(NC(=O)Cc3cccc(OC(F)(F)F)c3)nc2=O)s1` [Example 79, N-{1-[4-(5-amino-1,3,4-thiadiazol-2-yl)butyl]-2-oxo-1,2-dihydropyrimidin-4-yl}-2-[3-(trifluoromethoxy)phenyl]acetamide] yielded an EC50 in test [1] of 0.5 to 5 µM. Besides, the 50% inhibitory concentration (IC50) in test [2] is 0.5 to 5 µM.
For the compound `O=C(Cc1cccc(OC(F)(F)F)c1)Nc1ccn(CCCCc2nnc(NC(=O)[C@@H](O)c3ccccc3)s2)c(=O)n1` [Example 80, (2S)-2-hydroxy-N-{5-[4-(2-oxo-4-{2-[3-(trifluoro-methoxy)phenyl]acetamido}-1,2-dihydropyrimidin-1-yl)butyl]-1,3,4-thiadiazol-2-yl}-2-phenylacetamide], the concentration giving a half-maximal response (EC50) in test [1] is 0.1 to 0.5 µM. Also, in test [2], the IC50 is below 0.1 µM.
Turning to `O=C(Cc1cccc(OC(F)(F)F)c1)Nc1ccn(CCCCc2nnc(NC(=O)Cc3cccnc3)s2)c(=O)n1` [Example 81, N-[2-oxo-1-(4-{5-[2-(pyridin-3-yl)acetamido]-1,3,4-thiadiazol-2-yl]butyl)-1,2-dihydropyrimidin-4-yl]-2-[3-(trifluoromethoxy)phenyl]acetamide], in test [1], the half-maximal effective concentration (EC50) was in the range of 0.5 to 5 µM. In addition, the 50% inhibitory concentration (IC50) in test [2] was below 0.1 µM.
With `O=C(Cc1cccnc1)Nc1ccn(CCCCc2nnc(NC(=O)Cc3ccccc3)s2)c(=O)n1` [Example 82, N-[5-(4-{2-oxo-4-[2-(pyridin-3-yl)acetamido]-1,2-dihydropyrimidin-1-yl}butyl)-1,3,4-thiadiazol-2-yl]-2-phenylacetamide], the EC50 in test [1] is above 5 µM. The half-inhibitory concentration (IC50) in test [2] was below 0.1 µM.
Compound `O=C(Cc1ccccc1)Nc1nnc(CCCCn2ccc(NC(=O)[C@@H](O)c3ccccc3)nc2=O)s1` [Example 83, (2S)-2-hydroxy-N-(2-oxo-1-{4-[5-(2-phenylacetamido)-1,3,4-thiadiazol-2-yl]butyl}-1,2-dihydropyrimidin-4-yl)-2-phenylacetamide] had a concentration for a half-maximal effect (EC50) in test [1] above 5 µM. For the same compound, the IC50 in test [2] is below 0.1 µM.
For the compound `O=C(Cc1ccccc1)Nc1nnc(CCCCn2ccc(NC(=O)[C@H](O)c3ccccc3)nc2=O)s1` [Example 84, (2R)-2-hydroxy-N-(2-oxo-1-{4-[5-(2-phenylacetamido)-1,3,4-thiadiazol-2-yl]butyl}-1,2-dihydropyrimidin-4-yl)-2-phenylacetamide], the EC50 in test [1] was above 5 µM. The 50% inhibitory concentration (IC50) in test [2] is below 0.1 µM.
Compound `CC(C)(C)OC(=O)NCc1cccc(CC(=O)Nc2ccn(CCCCc3nnc(NC(=O)Cc4ccccc4)s3)c(=O)n2)c1` [Example 85, tert-butyl N-[(3-{[(2-oxo-1-{4-[5-(2-phenylacetamido)-1,3,4-thiadiazol-2-yl]butyl}-1,2-dihydropyrimidin-4-yl)carbamoyl]methyl}phenyl)methyl] carbamate] yielded a concentration for a half-maximal effect (EC50) in test [1] of 0.1 to 0.5 µM. Also, the 50% inhibitory concentration (IC50) in test [2] was below 0.1 µM.
The corresponding values for `CCNC(=O)Nc1ccn(CCCCc2ccc(NC(=O)Cc3ccccc3)nn2)c(=O)n1` [Example 86, N-[6-(4-{4-[(ethylcarbamoyl)amino]-2-oxo-1,2-dihydropyrimidin-1-yl}butyl)pyridazin-3-yl]-2-phenylacetamide] are above 5 µM and 0.5 to 5 µM.
